Like-named read-outs stand apart in the source and are kept apart here.

The test system of assay [1] is uterus, ovary and breast tumour cell lines. In words: Antiproliferative activity on uterus, ovary and breast tumour cell lines. The settings on record: result in words. Format: cell-based. As to the method: (§1) The evaluation of the estrogen receptor binding has been carried out on tumour cells of ovary and other organs. Cells were growth in a monolayer culture on the minimum essential medium added with calf serum and with 200 units/ml of penicillin to maintain the medium sterile. In order to make the tests reproducible, the cells were trypsinated every week and placed on plates at a density of […] and incubated at 37° C. under air atmosphere containing 5% CO2 and humidity. […] After 24 hours the substrate was replaced with fresh substrate and the chalcones dissolved in absolute ethanol were added. […] The treatment described above was repeated at 24 hours time intervals during the 72 hours time of the test. […] At the end of the incubation time, the cells were quickly washed with fresh substrate and incubated for 30 minutes with 1M NaOH. The radioactivity was measured by means of a scintiller and the binding specificity was calculated as the difference between the preparations containing or not diethylstilbestrol. The results are expressed as the number of binding sites per cell, according to conventional methods. The inhibition on the cell proliferation is evaluated by direct count of the cells comparing the growth of the controls versus that of the treated.

A further assay concerns OVCA 433 cancer cells. In words: Antiproliferative activity on OVCA 433 cancer cells in vitro (direct cell count). Format: cell-based. The note with it: read-out: IC50 ** Concentration giving a 50% inhibition on cell proliferation. As to the method:
as §1

In assay [2] the test system is estrogen receptors of type II. In words: Binding affinity to estrogen receptors of type II (displacement of labelled estradiol in tumour cells). The note with it: for IC50: read-out: IC50 *** Concentration giving a 50% displacement of labelled estradiol (40 nM) from the receptor, labelled estradiol 40 nM; for affinity to estrogen receptors of type II: result in words. As to the method:
as §1

Assay [3] has as its target estrogen receptors of type II. The settings on record: read-out: apparent affinity dissociation constant KD for estradiol; type II sites, rat uterus; cited from earlier work.
In a further assay the test system is human leukemia cells. The settings on record: result in words; cited from earlier work.
Setting [4] is: OVCA433, OVCA 433 cancer cells in vitro, 72 hours test.

`CC(C)=CCc1c(O)ccc(C(=O)/C=C/c2ccccc2)c1O` [Chalcone S1, Isocordoin]: the “antiproliferative activity on uterus, ovary and breast tumour cell lines” value (“antiproliferative activity on uterus” below) in assay [1] was “marked antiproliferative activity”. The IC50 (with OVCA 433 cancer cells (setting [4]); in assay [2]) was 1.2 µM in each case. For the same compound, the “affinity to estrogen receptors of type II” value (“affinity” below) in assay [2] is reported as “remarkable affinity”.

Take `COc1ccc(C(=O)/C=C/c2ccc(O)cc2)c(O)c1CC=C(C)C` [Chalcone S2, 4-hydroxyderricin]: the “antiproliferative activity on uterus” value in assay [1] is “marked antiproliferative activity”. Further, the IC50 with OVCA 433 cancer cells (setting [4]) came out at 17 µM; in assay [2] it was 10.6 µM. Besides, the “affinity” value in assay [2] is “remarkable affinity”.

`COc1ccc(C(=O)/C=C/c2ccccc2O)c(O)c1CC=C(C)C` [Chalcone S3, 2-hydroxyderricin]: the “antiproliferative activity on uterus” value in assay [1] is listed as “marked antiproliferative activity”. For the same compound, the IC50 with OVCA 433 cancer cells (setting [4]) stood at 4.2 µM. Also, in assay [2], the IC50 was 18 µM and the “affinity” value is recorded as “remarkable affinity”.

As for `COc1ccc(C(=O)/C=C/c2cccc(O)c2)c(O)c1CC=C(C)C` [Chalcone S4, 3-hydroxyderricin], the “antiproliferative activity on uterus” value in assay [1] is reported as “marked antiproliferative activity”. Moreover, the IC50 with OVCA 433 cancer cells (setting [4]) is 5 µM. For the same compound, in assay [2], the IC50 is 12.1 µM and the “affinity” value is “remarkable affinity”.

Turning to `O=C(/C=C/c1ccccc1)c1ccc(O)cc1O` [Chalcone S5, 2',4'-dihydroxychalcone], the “antiproliferative activity on uterus” value in assay [1] is listed as “marked antiproliferative activity”. For the same compound, the IC50 with OVCA 433 cancer cells (setting [4]) amounted to 2.5 µM; in assay [2], 0.6 µM. For the same compound, in assay [2], the “affinity” value is “remarkable affinity”.

`O=C(/C=C/c1ccc(O)cc1)c1ccc(O)cc1O` [Chalcone S6, 4,2',4'-trihydroxychalcone]: the “antiproliferative activity on uterus” value in assay [1] was “marked antiproliferative activity”. In addition, in the assay on OVCA 433 cancer cells (OVCA433, 72 h), the IC50 came out at 5 µM. In assay [2], the IC50 was found to be 3.2 µM and the “affinity” value is reported as “remarkable affinity”.

Turning to `CC(C)=CCOc1ccc(C(=O)/C=C/c2ccccc2)c(O)c1` [Chalcone S7, Cordoin], in assay [1], the “antiproliferative activity on uterus” value is listed as “marked antiproliferative activity”. Moreover, in the assay with OVCA 433 cancer cells (setting [4]), the IC50 is 6 µM. In addition, in assay [2], the IC50 came out at 4.2 µM and the “affinity” value is recorded as “remarkable affinity”.

Regarding `CC(C)=CCOc1ccc(C(=O)/C=C/c2ccc(O)cc2)c(O)c1` [Chalcone S8, 4-hydroxycordoin, reference compound], the “affinity” value in assay [2] was “no affinity”.

As to `CC(C)=CCOc1ccc(C(=O)CCc2ccccc2)c(O)c1` [Chalcone S9, Dihydrocordoin, reference compound], the “affinity” value in assay [2] is listed as “no affinity”.

For `C[C@]12CC[C@@H]3c4ccc(O)cc4CC[C@H]3[C@@H]1CC[C@@H]2O` [estradiol], in assay [3], the Kd was 0.01 to 0.02 µM.

As to `O=c1c(O)c(-c2ccc(O)c(O)c2)oc2cc(O)cc(O)c12` [quercetin], the “inhibiting activity on the proliferation of human leukemia cells” value in the assay on human leukemia cells is on record as “some inhibiting activity”.

These data come from patent publication US5808137A, “Chalcones and esters thereof with antiproliferative activity in uterus, ovary and breast tumors” (Indena S.p.A., priority 1994, dated 1998).
